{
  "source": "patent US6506390B2",
  "about": "“Progestogen-anti-progestogen regimens” (Akzo Nobel, priority 1996, dated 2003)",
  "origin": "cited, not measured here",
  "key": {"[1]": {"details": "based on practically applied doses; for relative potency in progestogenic activity: levonorgestrel, desogestrel and 3-keto-desogestrel compared with each other"}, "[2]": {"details": "as an approximation"}},
  "data": [
    {"smiles": "C#C[C@]1(O)CC[C@H]2[C@@H]3CCC4=CCCC[C@@H]4[C@H]3C(=C)C[C@@]21CC", "note": "[desogestrel, 13-ethyl-11-methylene-18,19-di-nor-17α-pregn-4-en-20-yn-17-ol]", "values": [
      {"measurement": "relative potency in progestogenic activity", "setting": "[1]", "result": "relatively equipotent"}
    ]},
    {"smiles": "C#C[C@]1(O)CC[C@H]2[C@@H]3CCc4cc(OC)ccc4[C@H]3CC[C@@]21C", "note": "[mestranol, 17-α-ethinyl estradiol 3-methylether]", "values": [
      {"measurement": "amount equivalent in estrogenic activity to 1 mg of 17β-estradiol", "setting": "[2]", "result": "~0.030", "unit": "mg"}
    ]},
    {"smiles": "C#CC1(O)CC[C@H]2[C@@H]3CCC4=CC(=O)CC[C@@H]4[C@H]3CC[C@@]21CC", "note": "(some centres unmarked) [Norgestrel, norgestrel]", "values": [
      {"measurement": "potency relative to levonorgestrel", "setting": "[1]; progestogenic activity", "result": "about one-half"}
    ]},
    {"smiles": "C#C[C@]1(O)C=C[C@H]2[C@@H]3CCC4=CC(=O)CC[C@@H]4[C@H]3CC[C@@]21CC", "note": "[Gestodene, gestodene]", "values": [
      {"measurement": "potency relative to levonorgestrel, desogestrel and 3-keto-desogestrel", "setting": "[1]; progestogenic activity", "result": "approximately 1.5 times"}
    ]},
    {"smiles": "C#C[C@]1(O)CC[C@H]2[C@@H]3CCC4=CC(=O)CC[C@@H]4[C@H]3C(=C)C[C@@]21CC", "note": "[3-keto-desogestrel]", "values": [
      {"measurement": "relative potency in progestogenic activity", "setting": "[1]", "result": "relatively equipotent"}
    ]}
  ]
}
